Earlier results on one compound are cited in patent US9133185B2, “Heteroaryl derivatives” (CHIESI FARMACEUTICI S.P.A., priority 2013, dated 2015).

Data set [1] deals with COPD patients.
For data set [2], the system named is smoking model of COPD in mice.
Where [3] appears, read: COPD patients, 500 mg once daily, given over 12 months.
Where [4] appears, read: COPD patients, oral, given over 4 weeks.
Setting [5] is: patients with severe disease who have frequent exacerbations and mucus hypersecretion.

In the case of `O=C(Nc1c(Cl)cncc1Cl)c1ccc(OC(F)F)c(OCC2CC2)c1` [Roflumilast, roflumilast], in data set [1] (setting [3]), the lung function entry is “improved lung function in COPD patients to a small extent” and the “reducing exacerbations or improving quality of life” value was “little effect”. Further, in data set [1] (setting [4]), the “CXCL8 concentrations in sputum” value is on record as “significantly reduces” and the “reduction of the numbers of neutrophils in sputum” value is on record as 36%. Moreover, in data set [1] (setting [5]), the “improvement of FEV 1” value is “approximately 50 mL” and the reduction of exacerbation entry is reported as “about 15%”. The “lung inflammation and emphysema” value in data set [2] is “inhibits lung inflammation and emphysema”.
